These results are taken from US20130217678A1, “PHARMACEUTICAL AGENT COMPRISING QUINOLONE COMPOUND” (OTSUKA PHARMACEUTICAL CO., LTD., priority 2008, published 2013).

Structures are written as SMILES.

Data set [1] deals with human neuroblastoma cell lines SH-SY5Y treated with 1-methyl-4-phenylpyridinium (MPP+). Nature of the data set: Improvement of mitochondrial function (Alamar Blue mitochondrial oxidation reduction activity) in MPP+-treated SH-SY5Y cells. Type of data set: cell-based. The conditions noted are these: 1.5 mM MPP+, relative to cells in DMSO alone = 100%, read-out: Fluorescence Intensity (%); for activity at 0.01 µg/mL: compound 0.01 μg/ml; for activity at 0.03 µg/mL: compound 0.03 μg/ml; for activity at 0.1 µg/mL: compound 0.1 μg/ml; for activity at 0.3 µg/mL: compound 0.3 μg/ml; for activity at 1 µg/mL: compound 1 μg/ml. As to the method:
In human neuroblastoma cell lines SH-SY5Y in which mitochondrial function was damaged by MPP^+ treatment (Bollimuntha S. et al., J Biol Chem, 280, 2132-2140 (2005) and Shang T. et al., J Biol Chem, 280, 34644-34653 (2005)), the improvement of mitochondrial function was evaluated on the basis of the measurement value for mitochondrial oxidation reduction activity using Alamar Blue fluorescent dye after the compound addition (Nakai M. et al, Exp Neurol, 179, 103-110 (2003)).
The human neuroblastoma cell lines SH-SY5Y were cultured in Dulbecco's Modified Eagle's Medium containing 10% fetal bovine serum (DMEM containing 50 units/ml penicillin and 50 μg/ml streptomycin as antibiotics) at 37° C. in the presence of 5% carbon dioxide. Cells were scattered on a poly-D-lysine-coated 96-well black plate at a concentration of 3−6×10^4 cells/cm^2 (medium amount: 100 μl/well) and cultured in the medium for two days. Further, the medium was changed to DMEM containing a 1% N2 supplement (N2-DMEM) or to a medium (100 μl/well) in which 1.5 mM MPP^+ was dissolved. The cells were cultured therein for 39 to 48 hours, and then subjected to a mitochondrial oxidation reduction activity measurement system. A sample compound that had been previously dissolved in dimethyl sulfoxide (DMSO) was diluted with N2-DMEM and added in a volume of 10 μl/well 24 hours before the activity measurement (final compound concentration: 0.01 to 1 μg/ml).
After removal of the medium by suction, a balanced salt solution containing 10% Alamar Blue (154 mM sodium chloride, 5.6 mM potassium chloride, 2.3 mM calcium chloride, 1.0 mM magnesium chloride, 3.6 mM sodium hydrogen carbonate, 5 mM glucose, 5 mM HEPES, pH 7.2) was added in a volume of 100 μl/well, and reacted in an incubator at 37° C. for 1 hour. The fluorescent intensity was detected using a fluorescence detector (a product of Hamamatsu Photonics K.K., excitation wavelength: 530 nm, measurement wavelength: 580 nm) to thereby measure the mitochondrial oxidation reduction activity.
The fluorescent intensity of the well of the cells cultured in a medium containing MPP^+ and each of the sample compounds was relatively evaluated based on the 100% fluorescent intensity of the well of the cells cultured in a medium containing DMSO alone (final concentration: 0.1%).

`CCn1cc(-c2ccc(OC)cc2)c(=O)c2ccc(OC)cc21` [Example 2, 1-Ethyl-7-methoxy-3-(4-methoxyphenyl)-1H-quinolin-4-one] returned a melting point of 129 to 131 °C. Also, in data set [1], the activity at 0.01 µg/mL was 71%, the activity at 0.03 µg/mL was determined as 73%, the activity at 0.1 µg/mL was 74% and the activity at 0.3 µg/mL was found to be 77%. Also, the activity at 1 µg/mL in data set [1] worked out at 81%.
Take `CCCOc1cccc2c(=O)c(-c3ccc(OC)cc3)c[nH]c12` [Example 3, 3-(4-Methoxyphenyl)-8-propoxy-1H-quinolin-4-one]: the melting point lay within 231 to 233 °C. In addition, in data set [1], the activity at 0.01 µg/mL is 68%, the activity at 0.03 µg/mL came to 77%, the activity at 0.1 µg/mL was 77% and the activity at 0.3 µg/mL was determined as 83%. Besides, the activity at 1 µg/mL in data set [1] is 67%.
`CCCOc1ccc(OC)c2c(=O)c(-c3ccc(OC)cc3)c[nH]c12` [Example 13, 5-Methoxy-3-(4-methoxyphenyl)-8-propoxy-1H-quinolin-4-one] came in with a melting point of 223 to 224 °C. Moreover, in data set [1], the activity at 0.01 µg/mL was found to be 56%, the activity at 0.03 µg/mL came out at 65%, the activity at 0.1 µg/mL was found to be 74% and the activity at 0.3 µg/mL amounted to 69%. Moreover, the activity at 1 µg/mL in data set [1] stood at 62%.
In turn, `COc1ccc(-c2c[nH]c3c(Oc4ccccc4)cccc3c2=O)cc1` [Example 18, 3-(4-Methoxyphenyl)-8-phenoxy-1H-quinolin-4-one] gave a melting point of 250 to 251 °C. In data set [1], the activity at 0.01 µg/mL turned out to be 29%, the activity at 0.03 µg/mL was 45%, the activity at 0.1 µg/mL was 44% and the activity at 0.3 µg/mL was 47%. Also, the activity at 1 µg/mL in data set [1] was determined as 30%.
The compound `CCCOc1ccc(C)c2c(=O)c(-c3ccc(OC)cc3OC)c[nH]c12` [Example 20, 3-(2,4-Dimethoxyphenyl)-5-methyl-8-propoxy-1H-quinolin-4-one] returned a melting point of 193 to 194 °C. In data set [1], the activity at 0.01 µg/mL is 65%, the activity at 0.03 µg/mL was found to be 67%, the activity at 0.1 µg/mL is 74% and the activity at 0.3 µg/mL turned out to be 78%. Moreover, in data set [1], the activity at 1 µg/mL stood at 77%.
The compound `CCCOc1ccc(OC)c2c(=O)c(-c3ccc(OC)cc3OC)c[nH]c12` [Example 21, 3-(2,4-Dimethoxyphenyl)-5-methoxy-8-propoxy-1H-quinolin-4-one] returned a melting point of 113 to 114 °C. Moreover, in data set [1], the activity at 0.01 µg/mL was 65%, the activity at 0.03 µg/mL amounted to 68%, the activity at 0.1 µg/mL worked out at 77% and the activity at 0.3 µg/mL was 82%. For the same compound, the activity at 1 µg/mL in data set [1] came out at 84%.
Regarding `COc1ccc(-c2c[nH]c3c(OCC4CC4)ccc(C)c3c2=O)c(F)c1` [Example 79, 8-Cyclopropylmethoxy-3-(2-fluoro-4-methoxyphenyl)-5-methyl-1H-quinolin-4-one], the melting point lay within 198 to 199 °C.
In turn, `CCCOc1ccc(C)c2[nH]cc(-c3ccc(OC)cc3)c(=O)c12` [Example 80, 3-(4-Methoxyphenyl)-8-methyl-5-propoxy-1H-quinolin-4-one] came in with a melting point of 156 to 158 °C.
For `CCCOc1ccc(Cl)c2[nH]cc(-c3ccc(OC)cc3)c(=O)c12` [Example 81, 8-Chloro-3-(4-methoxyphenyl)-5-propoxy-1H-quinolin-4-one], the melting point lay within 145 to 147 °C.
The compound `COc1ccc(-c2c[nH]c3c(N4CCCCCC4)ccc(C)c3c2=O)cc1` [Example 84, 8-Azepan-1-yl-3-(4-methoxyphenyl)-5-methyl-1H-quinolin-4-one] came in with a melting point of 249 to 250 °C.
As for `CCCOc1cc(-n2ccnc2)cc2c(=O)c(-c3ccc(OC)cc3)c[nH]c12` [Example 85, 6-Imidazol-1-yl-3-(4-methoxyphenyl)-8-propoxy-1H-quinolin-4-one], the melting point was 236 to 237 °C.
Turning to `COc1ccc(-c2c[nH]c3c(OCC4CC4)ccc(OC)c3c2=O)cc1` [Example 88, 8-Cyclopropylmethoxy-5-methoxy-3-(4-methoxyphenyl)-1H-quinolin-4-one], the melting point fell in the range of 212 to 214 °C.
The compound `COc1ccc(-c2c[nH]c3c(C(=O)N(C)C)ccc(C)c3c2=O)cc1` [Example 89, 3-(4-Methoxyphenyl)-5-methyl-4-oxo-1,4-dihydroquinolin-8-carboxylic acid dimethylamide] gave a melting point of 158 to 160 °C.
On the same count and under the same terms, under `COc1ccc(-c2c[nH]c3c(C(=O)N4CCCC4)ccc(C)c3c2=O)cc1` [Example 90, 3-(4-Methoxyphenyl)-5-methyl-8-(pyrrolidine-1-carbonyl)-1H-quinolin-4-one] stands 193 to 195 °C; under `COc1ccc(-c2c[nH]c3c(OC4CCCC4)ccc(C)c3c2=O)cc1` [Example 91, 8-Cyclopentyloxy-3-(4-methoxyphenyl)-5-methyl-1H-quinolin-4-one], 237 to 239 °C.
On to `CCCOc1ccc(C)c2c(=O)c(-c3ccc(OC)cc3)cn(CC3CC3)c12` [Example 92, 1-Cyclopropylmethyl-3-(4-methoxyphenyl)-5-methyl-8-propoxy-1H-quinolin-4-one], for which the melting point lay within 100 to 101 °C.
Take `COc1ccc(-c2c[nH]c3c(OC4CCCC4)ccc(OC)c3c2=O)cc1` [Example 93, 8-Cyclopentyloxy-5-methoxy-3-(4-methoxyphenyl)-1H-quinolin-4-one]: the melting point is 213 to 215 °C.
The compound `CCOc1ccc(OCC)c2c(=O)c(-c3ccc(F)cc3)c[nH]c12` [Example 94, 5,8-Diethoxy-3-(4-fluorophenyl)-1H-quinolin-4-one] showed a melting point of 232 to 234 °C.
The same measure, in the same setting: under `COc1ccc(-c2c[nH]c3c(-c4ccsc4)ccc(C)c3c2=O)cc1` [Example 97, 3-(4-Methoxyphenyl)-5-methyl-8-thiophen-3-yl-1H-quinolin-4-one] stands 189 to 190 °C; under `COc1ccc(-c2c[nH]c3c(-c4cc5ccccc5s4)ccc(C)c3c2=O)cc1` [Example 98, 8-Benzo[b]thiophen-2-yl-3-(4-methoxyphenyl)-5-methyl-1H-quinolin-4-one], 229 to 231 °C; under `COc1ccc(-c2c[nH]c3c(N(C)C4CCCCC4)ccc(C)c3c2=O)cc1` [Example 99, 8-(N-Cyclohexyl-N-methylamino)-3-(4-methoxyphenyl)-5-methyl-1H-quinolin-4-one], 186 to 187 °C.
On to `COc1ccc(-c2c[nH]c3c(-c4cccs4)ccc(C)c3c2=O)cc1` [Example 100, 3-(4-Methoxyphenyl)-5-methyl-8-thiophen-2-yl-1H-quinolin-4-one], for which the melting point lay within 197 to 199 °C.
`COc1ccc(-c2c[nH]c3c(N(C)CC(C)C)ccc(C)c3c2=O)cc1` [Example 102, 8-(N-Isobutyl-N-methyl-amino)-3-(4-methoxyphenyl)-5-methyl-1H-quinolin-4-one] came in with a melting point of 111 to 113 °C.
`COc1ccc(-c2c[nH]c3c(N(C)C(C)C)ccc(C)c3c2=O)cc1` [Example 103, 8-(N-Isopropyl-N-methylamino)-3-(4-methoxyphenyl)-5-methyl-1H-quinolin-4-one] had a melting point of 186 to 187 °C.
The same measure, in the same setting: the figure for `COc1ccc(OC2CCCC2)c2[nH]cc(-c3ccc(Cl)cc3Cl)c(=O)c12` [Example 104, 8-Cyclopentyloxy-3-(2,4-dichlorophenyl)-5-methoxy-1H-quinolin-4-one] is 266 to 268 °C.
For the compound `COc1ccc(OCC2CC2)c2[nH]cc(-c3ccc(Cl)cc3Cl)c(=O)c12` [Example 105, 8-Cyclopropylmethoxy-3-(2,4-dichlorophenyl)-5-methoxy-1H-quinolin-4-one], the melting point was 254 to 256 °C.
In the case of `O=c1c(-c2ccc(Cl)cc2Cl)c[nH]c2c(OC3CCCC3)ccc(O)c12` [Example 106, 8-Cyclopentyloxy-3-(2,4-dichlorophenyl)-5-hydroxy-1H-quinolin-4-one], the melting point lay within 154 to 155 °C.
Turning to `O=c1c(-c2ccc(Cl)cc2Cl)c[nH]c2c(OCC3CC3)ccc(O)c12` [Example 107, 8-Cyclopropylmethoxy-3-(2,4-dichlorophenyl)-5-hydroxy-1H-quinolin-4-one], the melting point lay in the range of 163 to 165 °C.
